Experimental data reported in article PMC9905731, “PIN1 and PIN4 inhibition via parvulin impeders Juglone, PiB, ATRA, 6,7,4′-THIF, KPT6566, and EGCG thwarted hepatitis B virus replication” (Frontiers in Microbiology, 2023).

Tested on: HBV-infected HepG2-hNTCP-C9 cells
Assay: HBV replication in HBV-infected HepG2-hNTCP-C9 cells
Type: cell-based, hepatitis B virus
Conditions: 9 days; 20 μM Juglone or PiB, 30 μM ATRA, 6,7,4′-THIF or KPT6566, 40 μM EGCG; vs solvent
Method: Figure 9 PIN1 and PIN4 Inhibition via Juglone, PiB, ATRA, 6,7,4′-THIF, KPT6566, and EGCG abrogate HBV replication in HBV-infected cells. […] HepG2-hNTCP-C9 cells were seeded and infected, as described previously, in the “Material and Methods” section. Infected cells (lanes 2–3) were treated with solvent (lane 2) or 20 μM Juglone, 20 μM PiB, 30 μM ATRA, 30 μM 6,7,4′-THIF, 30 μM KPT6566, 40 μM EGCG (lane 3) for 9 days, and lysates were subjected to SDS-PAGE and immunoblotting, NAGE, Northern blotting, and Southern blotting. The shown data are representation from three independent experiments. The statistical significance was determined by using Student’s t-test. *p < 0.05, **p < 0.005, ***p < 0.0005 relative to the corresponding control.
HBV inoculum was harvested from HepAD38 cells for infection experiments. HepAD38 cells in DMEM plus 10% FBS, 1% PS, G418 (0.5 mg/ml), insulin (5 μg/ml), and hydrocortisone hemisuccinate (50 μM) were grown, and on every third day after passage of day 10th (till 31st), the media supernatants were collected and concentrated via 20 to 60% sucrose gradient by ultra-centrifugation (Beckman Coulter Optima L-90 K) method, as described previously ([Saeed et al., 2019], [2021]). The HBV DNAs from the pelleted precipitant were examined by Southern blotting. […] The following day, the cell media was refreshed after PBS washing and maintained in 2.5% DMSO containing media. On the 9th day post-infection, the cellular lysates were prepared and subjected to SDS-PAGE and immunoblotting, core particle immunoblotting, and Southern blot analysis. At 5 days post-infection, HBV RNA levels were determined by Northern blotting.
Juglone (Sigma Aldrich, AG17724), PiB (Calbiochem, CAS 64005–90-9), ATRA (Sigma-Aldrich, R2625), 6,7,4′-THIF (Chem Faces, CFN90796), KPT6566 (ProbeChem, PC-61182), or EGCG (Sigma Aldrich, 989–51-5) was treated to Huh7, HepAD38, HepG2, HepG2.2.15, and HepG2-hNTCP-C9 cells. Prior to the conduct of experiments, the cytotoxic effects of Juglone, PiB, ATRA, 6,7,4′-THIF, KPT6566, or EGCG were examined via MTT assay (3-[4,5-dimethylththiazol-2-yl]-2,5-diphenyltetrazolium bromide), as described previously ([Bichko et al., 1985]; [Piracha et al., 2018], [2020]; [Saeed et al., 2019], [2021]). Briefly, selected HCC cell lines (HepG2, Huh7, HepG2.2.15, and HepAD38) in 6 cm plates were treated with Juglone (20 μM), PiB (20 μM), ATRA (30 μM), 6,7,4′-THIF (30 μM), KPT6566 (30 μM), or EGCG (40 μM) at transfection or at the time of TC removal from HepAD38 cells. Juglone (20 μM in ethanol, Sigma Aldrich, AG17724) was treated to 1.3 mer HBV-WT transfected Huh7 cells (Figure 3A) or TC-depleted HepAD38 cells (Figure 3B) or to 1.3 mer HBV-WT transfected HepG2 (Figure 3C) or HepG2.2.15 (Figure 3D) cells for 72 h. PiB (20 μM in DMSO, Calbiochem, CAS 64005-90-9) was treated for 72 h to 1.3 mer HBV-WT transfected Huh7 cells (Figure 4A) or TC-depleted HepAD38 cells (Figure 4B) or to 1.3 mer HBV-WT transfected HepG2 cells (Figure 4C) or HepG2.2.15 (Figure 4D) cells. To examine the effects on HBV replication, ATRA (30 μM in DMSO, R2625 Sigma-Aldrich) was treated for 72 h to 1.3 mer HBV-WT transfected Huh7 cells (Figure 5A) or TC-depleted HepAD38 cells (Figure 5) or to 1.3 mer HBV-WT transfected HepG2 cells (Figure 5C) or HBV replicating HepG2.2.15 (Figure 5D) cells. 6,7,4′-THIF (30 μM in DMSO, CFN90796 Chem Faces) was treated for 72 h to 1.3 mer HBV-WT transfected Huh7 cells (Figure 6A) or TC-depleted HepAD38 cells (Figure 6B) or to 1.3 mer HBV-WT transfected HepG2 cells (Figure 6C) or HBV replicating HepG2.2.15 (Figure 6D) cells. KPT-6566 (30 μM in DMSO, PC-61182 ProbeChem) was treated for 72 h to 1.3 mer HBV-WT transfected Huh7 cells (Figure 7A) or TC-depleted HepAD38 cells (Figure 7B) or to 1.3 mer HBV-WT transfected HepG2 cells (Figure 7C) or HBV replicating HepG2.2.15 (Figure 7D) cells. […]

| SMILES | HBV replication in infected cells (HBc, HBV transcripts, core particles, HBV DNA) |
| --- | --- |
| O=c1c(-c2ccc(O)cc2)coc2cc(O)c(O)cc12 [6,7,4′-THIF, 6,7-dihydroxy-3-(4-hydroxyphenyl)-4H-chromen-4-one] | restricted HBV replication |
| O=C1C=CC(=O)c2c(O)cccc21 [Juglone, 5-hydroxyl-1,4-naphthoquinone] | restricted HBV replication |
| CC1=C(/C=C/C(C)=C/C=C/C(C)=C/C(=O)O)C(C)(C)CCC1 [ATRA, All-trans-retinoic acid] | restricted HBV replication |
| CC(C)(C)c1ccc(S(=O)(=O)N=C2C=C(SCC(=O)O)C(=O)c3ccccc32)cc1 [KPT6566, 2-[[4-[[[4-(1,1-dimethylethyl)phenyl]sulfonyl]imino]-1,4-dihydro-1-oxo-2-naphthalenyl]thio] acetic acid] | restricted HBV replication |
| CCOC(=O)CN1C(=O)c2ccc3c4c(ccc(c24)C1=O)C(=O)N(CC(=O)OCC)C3=O [PiB, 1,3,6,8-tetrahydro-1,3,6,8-tetraoxo-benzo [lmn][3,8] phenanthroline-2,7-diacetic acid, 2,7-diethyl ester] | restricted HBV replication |
| O=C(O[C@@H]1Cc2c(O)cc(O)cc2O[C@@H]1c1cc(O)c(O)c(O)c1)c1cc(O)c(O)c(O)c1 [EGCG, Epigallocatechin gallate] | restricted HBV replication |
